Calls of active or inactive are those of the source. The rule behind the calls is not given here.
target: Prostaglandin E2 receptor EP2 subtype (Homo sapiens) (UniProt P43116); experiment: compounds shifting PGE2 potency at EP2 – cell-based, human EP2, PGE2 EC50 shift, dose response (AID 1421); details: EP2-expressing cells, PGE2 EC50 shift by compound
Sequence (P43116 whole entry, looked up): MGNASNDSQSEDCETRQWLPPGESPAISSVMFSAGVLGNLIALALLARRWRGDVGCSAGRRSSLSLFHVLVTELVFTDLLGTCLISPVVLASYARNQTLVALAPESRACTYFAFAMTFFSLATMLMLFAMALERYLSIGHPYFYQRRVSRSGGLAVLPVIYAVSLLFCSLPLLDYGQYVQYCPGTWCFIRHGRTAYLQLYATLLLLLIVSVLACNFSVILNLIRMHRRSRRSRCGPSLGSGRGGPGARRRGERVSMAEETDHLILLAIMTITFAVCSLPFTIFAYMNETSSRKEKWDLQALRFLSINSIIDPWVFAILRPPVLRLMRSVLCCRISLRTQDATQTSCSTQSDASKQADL

SMILES | outcome
CC(C)OC(=O)c1c(NC(=O)CCn2nnc3ccccc32)sc2c1CCCC2 | active
COc1nc(-c2ccccc2)nnc1-c1ccccc1 | active
O=C1CCC(c2ccccc2)=NN1Cc1c(F)cccc1Cl | active
CC1=CC(C)(C)N(C(=O)c2ccccc2)c2ccccc21 | active
Cc1ccc(NCc2ccccc2OCc2ccccc2F)cc1 | active
CCOC(=O)c1cc(CC)sc1NC(=O)c1cc(OC)c(OC)c(OC)c1 | active
CCOC(=O)c1c(C)[nH]c(C=O)c1Cc1cccc(Cl)c1 | active
CCOC(=O)c1c(NC(=O)c2ccoc2C)sc(C)c1C | active
CCOC(=O)c1cc(CC)sc1NC(=O)c1ccc2c(c1)OCCO2 | active
CCCn1c2ccccc2c2nc3ccccc3nc21 | active
Clc1ccc(COn2c(-c3ccccc3)nc3ccccc32)cc1 | active

same assay, conditions: EP2-expressing cells, PGE2 EC50 shift by compound; measured here: PGE2 EC50 at 6.7 uM compound

SMILES | PGE2 EC50 with compound
COc1ccc(C(=O)COC(=O)C(CCSC)NS(=O)(=O)c2ccc(Cl)cc2)cc1 (centres undefined) | 2.2 nM
CCCCN1C=C(C(=O)OC)C(c2ccccc2Cl)C(C(=O)OC)=C1 | 2.72 nM
COc1ccc(N=Cc2cc(Cc3ccccc3Cl)cc([N+](=O)[O-])c2O)cc1OC | 0.65 nM
CN(CC(=O)Nc1ccccc1-c1ccccc1)Cc1ccccc1Cl | 0.95 nM
CC(C)OC(=O)c1c(NC(=O)CCn2nnc3ccccc32)sc2c1CCCC2 | 1 nM
O=C(O)COc1cccc(NC(=O)c2ccccc2)c1 | 2.83 nM
CC(C)CCn1c(O)c(N=NC(=O)c2ccco2)c2ccccc21 | 1.03 nM
Nc1c(C(=O)NCc2ccccc2)c2nc3ccccc3nc2n1CCCN1CCOCC1 | 1.09 nM
CCN(CC)C(=O)Cn1cc(C(=O)C(=O)NCc2ccco2)c2ccccc21 | 1.55 nM
NC(=O)COc1ccc(C23CC4CC(CC(C4)C2)C3)cc1 | 2.56 nM
COc1nc(-c2ccccc2)nnc1-c1ccccc1 | 1.05 nM
Cc1onc(-c2c(F)cccc2Cl)c1C(=O)OCn1nnc2ccccc2c1=O | 0.92 nM
CCOC(=O)c1sc2nc3c(SCC(=O)O)cc(C(=O)c4cc(F)ccc4O)cn3c(=O)c2c1C | 0.6 nM
CCOC(=O)C1=C(C)N(C)C(C)=C(C(=O)OCC)C1c1ccccc1 | 0.97 nM
O=C1CCC(c2ccccc2)=NN1Cc1c(F)cccc1Cl | 0.9 nM
Nc1cc(Cl)ccc1Oc1ccc(Cl)cc1 | 0.75 nM
COc1ccc(/C=C(\C#N)C(N)=O)cc1OC | 1.31 nM
Cc1occc1-c1nnc(SCC(=O)Nc2ccccc2N2CCCCC2)n1C | 2.71 nM
COC(=O)c1c(NC(=O)Cc2cccs2)sc(C)c1C | 0.88 nM
COc1cccc(C(=O)Nc2cccc(OCC(=O)O)c2)c1 | 0.93 nM
CC1=CC(C)(C)N(C(=O)c2ccccc2)c2ccccc21 | 0.8 nM
CCOC(=O)c1[nH]c2ccc(OC)cc2c1NS(=O)(=O)c1ccc(Cl)s1 | 2.87 nM
CN(c1ccccc1)c1nc(N2CCCC2)nc(-n2ccnc2)n1 | 0.79 nM
CCOC(=O)c1c(NC(=O)CSc2nnc(N)s2)sc(C)c1-c1ccc(C)cc1 | 0.48 nM
Cc1cccc(Oc2nc(-c3ccccc3)cc(C)c2S(C)(=O)=O)c1C | 2.56 nM
COC(=O)CSc1nc2c(c(C3CC=CCC3)c1C#N)CCC2 (centres undefined) | 1.26 nM

SMILES | PGE2 EC50 with compound
Cc1ccc(NCc2ccccc2OCc2ccccc2F)cc1 | 0.86 nM
O=C(c1ccc(Cl)cc1)c1oc2ccccc2c1CS(=O)c1ccc(Cl)cc1 (centres undefined) | 0.88 nM
O=C(c1ccccc1O)N1N=C(c2ccccc2)CC1(O)C(F)(F)F (centres undefined) | 1.48 nM
Cc1cc(Oc2ccccc2)nc(NCc2ccccc2)n1 | 0.63 nM
COc1ccc(-c2noc(-c3ccccc3C(=O)Nc3cccnc3)n2)cc1 | 1.02 nM
CCN1CCN(c2c(Cl)cccc2NC(=O)c2ccc(Br)o2)CC1 | 2.53 nM
CCOc1ccc(OCC)c(NC(=O)CN2CCN(c3cccc(C)c3)CC2)c1 | 1.02 nM
Cc1cc(C)c(C)c(Cn2c(CO)nc3ccccc32)c1C | 0.6 nM
CCOC(=O)c1c(N)nn(C(=O)C(C)(C)C)c1-c1ccccc1 | 0.96 nM
Cn1c(CNc2ccc(F)cc2)nnc1SCC(=O)NNC(=O)Cc1ccccc1 | 1.63 nM
CC[C@H](C)C(=O)O[C@H]1C[C@@H](C)C=C2C=C[C@H](C)[C@H](CC[C@@H]3C[C@@H](O)CC(=O)O3)[C@H]21 | 0.97 nM
CCOP(=O)(OCC)c1nc(-c2cccc3ccccc23)oc1N1CCCCC1 | 1.11 nM
COc1cc(/C=C2\SC(=S)N(Nc3ncc(C(F)(F)F)cc3Cl)C2=O)ccc1O | 1.36 nM
COc1ccc(N2C(=O)N(Cc3ccc(C)cc3)c3ccccc3S2(=O)=O)cc1 | 2.81 nM
CSc1nc2nccc(-c3ccc(-c4ccccc4)cc3)n2n1 | 0.87 nM
CCCc1cc(-c2nc(N)ncc2-c2ccc3c(c2)OCCCO3)c(O)cc1OC | 0.86 nM
COc1ccc(-c2noc(-c3ccccc3-c3ccccc3)n2)cc1OC | 0.31 nM
Cc1ccc(N=Nc2c(N)[nH]n3c(=O)c4c(nc23)CCCC4)cc1 | 0.81 nM
Cc1noc2ncnc(Sc3c(Cl)cccc3Cl)c12 | 0.75 nM
CCOC(=O)c1sc2nc(C)nc(N3CCN(c4ncccn4)CC3)c2c1C | 0.62 nM
CCOC(=O)c1sc(NC(=O)CN2C(=O)c3cccc4cccc(c34)C2=O)nc1C | 1.37 nM
CCOC(=O)c1cc(CC)sc1NC(=O)c1cc(OC)c(OC)c(OC)c1 | 0.82 nM
Cc1cccc(NC2=NC(=S)N(c3ccc(C(=O)O)cc3)C23CCCCC3)c1 | 0.8 nM
O=C(Nc1cccc(Cl)c1N1CCCC1)c1ccc(Br)o1 | 1.61 nM
CCCCNCC(=O)Nc1sc(C)c(C)c1C(=O)OCC | 2.33 nM
CCOC(=O)c1c(CC(C)C)csc1N | 1.47 nM

SMILES | PGE2 EC50 with compound
CCOP(=O)(OCC)c1nc(-c2cccc3ccccc23)oc1NCc1ccccc1 | 2.48 nM
CCOC(=O)CC(=O)CSc1ncnc2c1oc1ccccc12 | 2.64 nM
COc1c(O)ccc(/C=C(\C#N)c2nc3ccccc3[nH]2)c1[N+](=O)[O-] | 1.1 nM
CCOC(=O)c1c(C)[nH]c(C=O)c1Cc1cccc(Cl)c1 | 0.98 nM
Cc1ccc(C2CC(c3cccs3)=NN2C(=O)c2ccc(Br)o2)cc1 (centres undefined) | 0.75 nM
CCCc1nc(SC2CCCC2)c2c(=O)n(C)c(=O)n(C)c2n1 | 0.75 nM
CCOc1ccccc1NC(=O)c1c(Br)cnn1C | 1.08 nM
Nc1ccc(Br)cc1C(=O)c1ccccc1 | 0.43 nM
COc1ccc(-c2cc(-c3n[nH]c(=S)n3-c3cccc4ccccc34)[nH]n2)cc1 | 1.74 nM
COc1ccc2c(COC(=O)c3n[nH]c4ccccc34)cc(=O)oc2c1 | 1.31 nM
O=c1c2c(n3nnnc3n1-c1ccccc1)-c1ccccc1CC21CCCC1 | 1.01 nM
CCOC(=O)c1c(NC(=O)CN2C(=O)NC3(CCCCCC3)C2=O)sc(C)c1-c1ccc(C)cc1 | 0.76 nM
C=CCSc1nc2ccccc2n1S(=O)(=O)c1ccc(C)cc1 | 0.95 nM
O=C(O)[C@@H]1[C@H](C(=O)O)[C@@H](C(=O)O)C[C@H]1C(=O)O | 0.91 nM
CCOC(=O)c1c(NC(=O)c2ccoc2C)sc(C)c1C | 0.94 nM
COc1ccc(Cc2n[nH]c(=S)n2Cc2ccccc2)cc1Cl | 1.41 nM
CCOC(=O)c1cc(CC)sc1NC(=O)c1ccc2c(c1)OCCO2 | 0.97 nM
CC(C)c1cc(=O)oc2c3c4c(cc12)CCCN4CCC3 | 1.15 nM
COC(=O)C(C)Sc1ncnc2c1nnn2-c1ccc(F)cc1 (centres undefined) | 1.11 nM
O=C(COc1ccccc1)Nc1cc(C(F)(F)F)ccc1N1CCCC1 | 0.91 nM
O=C(Nc1ccccc1Oc1ccccc1)c1ccc(Br)o1 | 1.05 nM
COc1ccc(Oc2cc(C(F)(F)F)nc(N(C)C)n2)cc1 | 0.63 nM
COc1ccc(Nc2nc(-c3cc4cccc(OC)c4oc3=O)cs2)cc1 | 1.29 nM
O=C(CNCc1ccccc1Cl)Nc1ccccc1N1CCCCC1 | 0.64 nM
COc1cc(C=O)ccc1OC(=O)c1ccc(C(C)C)cc1 | 1.44 nM
C[C@H](C(=O)c1ccccc1)[C@@H](c1ccccc1)N1CCOCC1 | 1.43 nM

SMILES | PGE2 EC50 with compound
CC1CCN(c2nc3c(c(=O)[nH]c(=O)n3C)n2CCCc2ccccc2)CC1 | 1.05 nM
COC(=O)NC1(C(F)(F)F)C(=O)NC(C)=C1C(=O)OC (centres undefined) | 1.02 nM
CCCCCn1c(CN2CCN(c3cc(Cl)ccc3C)CC2)nc2c1c(=O)[nH]c(=O)n2C | 1.25 nM
S=c1[nH]nc(-c2ccccc2)n1/N=C/c1ccc(-c2ccccc2Cl)o1 | 2.43 nM
Cc1nc(N(C)C)c2sc(=S)n(Cc3ccccc3)c2n1 | 1.21 nM
C=CCc1cc(C=O)cc(OC)c1OCc1ccc(Cl)cc1 | 0.57 nM
CCCc1cc(=O)[nH]c(SCC(=O)N2CCC(C(=O)OCC)CC2)n1 | 0.64 nM
CCOC(=O)c1c(NC(=O)c2ccc(Br)o2)sc(C)c1CC | 0.94 nM
CCOC(=O)c1c(NC(=O)CSc2ncnc3[nH]ncc23)sc2c1CCC(C)C2 (centres undefined) | 0.67 nM
Cc1ccc(-c2nc(P(=O)(c3ccccc3)c3ccccc3)c(N3CCOCC3)o2)cc1 | 1.18 nM
CCCn1c2ccccc2c2nc3ccccc3nc21 | 1.21 nM
CCC(Sc1nc(-c2ccccc2)c(C#N)c(=O)[nH]1)C(=O)Nc1cc(C)on1 (centres undefined) | 1.38 nM
Cc1c(F)cccc1NC(=O)CCCCCC1NC(=O)NC1C (centres undefined) | 1.84 nM
O=c1c2ccccc2c(-c2ccccc2)nn1-c1ccc(Cl)c(Cl)c1 | 1.42 nM
N#CC1(Cc2ccccc2Cl)c2ccccc2C=CN1C(=O)c1ccccc1 (centres undefined) | 1.54 nM
CC(=O)NC(c1ccccc1)c1cccnc1 (centres undefined) | 1.03 nM
Cc1ccc(N(Cc2ccccc2)Cc2ccccc2)cc1 | 1.7 nM
C[C@H](CN(C)C)C(=O)c1ccccc1C(=O)O | 1.41 nM
CCCCOc1ccccc1Cn1c(=O)oc2ccccc21 | 0.81 nM
O=C(Nc1cccc2cccnc12)c1ccc(Br)o1 | 1.22 nM
Clc1ccc(COn2c(-c3ccccc3)nc3ccccc32)cc1 | 2.65 nM
Cc1ccc(-c2cccc(C(=O)NCc3ccccc3)n2)c2ccccc12 | 0.32 nM
CCOC(=O)C1CCN(c2c(C(=O)c3ccccc3)cnc3ccc(CC)cc23)CC1 | 0.91 nM
FC(F)(F)c1cc(CO[C@H]2CCCN[C@H]2c2ccccc2)cc(C(F)(F)F)c1 | 1.59 nM
Nc1cccc(OCc2nc(N)nc(N)c2-c2ccc(Cl)cc2)c1 | 1.24 nM
